In DBAASP:
Converted amounts (≈) assume the structure as drawn. “And” between values parts separate entries of the source, which are not always exact repeats. Identical values can stand only once.

Assays:
Assay in all cases: ≥ marks a high value that may be exact or a test limit, other limits are often not marked, values filed in µg/mL are converted to µM
[1] = system: Acinetobacter baumannii ATCC 19606
Acinetobacter baumannii = system: Acinetobacter baumannii
Aspergillus flavus = system: Aspergillus flavus
Bacillus megaterium = system: Bacillus megaterium
Bacillus subtilis JC443 = system: Bacillus subtilis JC443
[2] = system: Candida albicans ATCC 90028
[3] = system: Candida parapsilosis ATCC 22019
[4] = system: Enterococcus faecalis ATCC 29212
[5] = system: Escherichia coli ATCC 35218
Escherichia coli D21 = system: Escherichia coli D21
Escherichia coli JC113 = system: Escherichia coli JC113
Escherichia coli ML-35p = system: Escherichia coli ML-35p
Escherichia coli = system: Escherichia coli
[6] = system: Klebsiella pneumoniae ATCC 700603
Klebsiella pneumoniae = system: Klebsiella pneumoniae
Listeria ivanovii = system: Listeria ivanovii
[7] = system: Pseudomonas aeruginosa ATCC 27853
[8] = system: Pseudomonas aeruginosa ATCC 9027
[9] = system: Pseudomonas aeruginosa JC115
Saccharomyces cerevisiae = system: Saccharomyces cerevisiae
[10] = system: Staphylococcus aureus ATCC 43300
[11] = system: Staphylococcus aureus ATCC BAA-44
[12] = system: Staphylococcus aureus JC114
[13] = system: Staphylococcus aureus USA 100
[14] = system: Staphylococcus aureus USA 300
Staphylococcus aureus = system: Staphylococcus aureus
[15] = system: Streptococcus pyogenes ATCC 19615
[16] = system: Escherichia coli HP101BA 7601c
[17] = system: Klebsiella pneumoniae PTCC 1388
[18] = system: Staphylococcus aureus PTCC 1431
[19] = system: Streptococcus agalactiae PTCC 1365
[20] = system: Streptococcus dysgalactiae PTCC 1074
[21] = system: Bordetella bronchiseptica CUN 11844-99
[22] = system: Escherichia coli ATCC 25922
[23] = system: Pseudomonas aeruginosa CUN 4158-02
[24] = system: Staphylococcus aureus ATCC 25923
[25] = system: Staphylococcus aureus CUN 3792-99
[26] = system: Stenotrophomonas maltophilia CUN 3998-00
[27] = system: Aeromonas salmonicida NCIMB 1102
[28] = system: Bacillus subtilis IAM 1026
[29] = system: Escherichia coli JCM 1649
[30] = system: Photobacterium damselae subsp. piscicida Sp 9587
Salmonella typhimurium = system: Salmonella typhimurium
[31] = system: Shewanella putrefaciens IAM 1509
[32] = system: Staphylococcus aureus IAM 1011
[33] = system: Vibrio anguillarum NCIMB 829
[34] = system: Vibrio parahaemolyticus Vp+1

Molecule `CC[C@H](C)[C@H](NC(=O)[C@H](CCCN=C(N)N)NC(=O)[C@H](CO)NC(=O)[C@H](CC(C)C)NC(=O)[C@H](Cc1ccccc1)NC(=O)[C@H](Cc1ccccc1)NC(=O)[C@@H](N)Cc1ccccc1)C(=O)N[C@@H](Cc1ccccc1)C(N)=O` [FFFLSRIF] has an MIC [1] greater than 100 µM, an MIC (Acinetobacter baumannii) of no less than 100 µM and an MIC (Aspergillus flavus) of no less than 200 µM. For the same molecule, the MIC (Bacillus megaterium) was 3 µM (≈ 3.23 µg/mL), the MIC (Bacillus subtilis JC443) was no less than 149 µM and the MIC [2] was no less than 100 µM. For the same molecule, the MIC [3] was no less than 50 µM, the MIC [4] was 50 µM and 100 µM and the MIC [5] was no less than 200 µM. For the same molecule, the MIC (Escherichia coli D21) was no less than 100 µM, the MIC (Escherichia coli JC113) was no less than 116 µM and the MIC (Escherichia coli ML-35p) was 30 µM (≈ 32.3 µg/mL). For the same molecule, the MIC (Escherichia coli) was greater than 100 µM, the MIC [6] was greater than 100 µM and the MIC (Klebsiella pneumoniae) was greater than 100 µM. The MIC (Listeria ivanovii) was no less than 50 µM, the MIC [7] was > 200 µM and 100 µM and the MIC [8] was greater than 100 µM. The MIC [9] was no less than 88 µM, the MIC (Saccharomyces cerevisiae) was 12.5 µM (≈ 13.4 µg/mL) and the MIC [10] was greater than 100 µM. It also gave an MIC [11] of 25 µM (≈ 26.9 µg/mL), an MIC [12] of no less than 121 µM and an MIC [13] of no less than 50 µM. For the same molecule, the MIC [14] was no less than 50 µM, the MIC (Staphylococcus aureus) was 100 µM (≈ 108 µg/mL) and the MIC [15] was 25 µM (≈ 26.9 µg/mL).
Molecule `CC(C)C[C@H](NC(=O)[C@H](C)NC(=O)[C@H](C)NC(=O)[C@H](CC(N)=O)NC(=O)[C@H](Cc1ccccc1)NC(=O)[C@H](CC(C)C)NC(=O)[C@@H]1CCCN1C(=O)[C@H](CCCCN)NC(=O)[C@H](CC(C)C)NC(=O)[C@@H](N)Cc1ccccc1)C(=O)N[C@@H](CCCCN)C(=O)N[C@@H](CC(C)C)C(=O)N[C@@H](CC(C)C)C(=O)N1CCC[C@H]1C(N)=O` [FLKPLFNAALKLLP] has an MIC [16] of 15.3 µM (≈ 24.2 µg/mL), an MIC [17] of 19.7 µM (≈ 31.2 µg/mL) and an MIC [18] of 22.2 µM (≈ 35.2 µg/mL). For the same molecule, the MIC [19] was 15.6 µM (≈ 24.7 µg/mL) and the MIC [20] was 20.9 µM (≈ 33.2 µg/mL).
With `NCCCC[C@H](NC(=O)CN)C(=O)N[C@@H](CCCCN)C(=O)N[C@@H](Cc1ccc(O)cc1)C(=O)N[C@@H](CCCN=C(N)N)C(=O)N[C@@H](CCCN=C(N)N)C(=O)N[C@@H](Cc1ccccc1)C(=O)N[C@@H](CCCN=C(N)N)C(=O)N[C@@H](Cc1c[nH]c2ccccc12)C(=O)N[C@@H](CCCCN)C(=O)N[C@@H](Cc1ccccc1)C(=O)N[C@@H](CCCN=C(N)N)C(=O)N[C@@H](CCCCN)C(=O)NCC(=O)N[C@@H](CCCN=C(N)N)C(=O)N[C@@H](Cc1ccccc1)C(=O)N[C@@H](Cc1c[nH]c2ccccc12)C(=O)N[C@@H](Cc1ccccc1)C(=O)N[C@@H](Cc1c[nH]c2ccccc12)C(=O)NCC(N)=O` [GKKYRRFRWKFRKGRFWFWG] the MIC [1] was 5.73 µM (≈ 16 µg/mL), the MIC [21] was 1.43 µM (≈ 4 µg/mL) and the MIC [22] was 5.73 µM (≈ 16 µg/mL). It also gave an MIC [7] of 5.73 µM (≈ 16 µg/mL), an MIC [23] of 11.5 µM (≈ 32 µg/mL) and an MIC [24] of 5.73 µM (≈ 16 µg/mL). The MIC [10] was 5.73 µM (≈ 16 µg/mL), the MIC [25] was 5.73 µM (≈ 16 µg/mL) and the MIC [26] was 22.9 µM (≈ 64 µg/mL).
With `CC[C@H](C)[C@H](NC(=O)[C@H](CCCCN)NC(=O)CNC(=O)[C@H](CC(C)C)NC(=O)[C@@H](NC(=O)[C@H](CCCCN)NC(=O)[C@H](CCCNC(=N)N)NC(=O)[C@H](Cc1c[nH]c2ccccc12)NC(=O)[C@@H](N)CC(N)=O)[C@@H](C)CC)C(=O)N[C@@H](C)C(=O)N[C@@H](CCCCN)C(=O)N[C@H](C(=O)N[C@@H](C)C(=O)N[C@@H](C)C(=O)NCC(=O)N[C@@H](CC(C)C)C(=O)N[C@@H](CC(C)C)C(=O)NCC(=O)N[C@@H](CO)C(=O)N[C@@H](CCSC)C(=O)N[C@@H](CC(C)C)C(=O)N[C@@H](C)C(=O)NCC(=O)N[C@@H](Cc1ccc(O)cc1)C(=O)N[C@@H](CCC(N)=O)C(=O)N[C@H](C(=O)O)C(C)C)C(C)C` [NWRKILGKIAKVAAGLLGSMLAGYQV] the MIC [27] was 9.06 µM (≈ 25 µg/mL), the MIC [28] was 2.27 µM (≈ 6.25 µg/mL) and the MIC [29] was 4.53 µM (≈ 12.5 µg/mL). It also gave an MIC [30] of 2.27 µM (≈ 6.25 µg/mL), an MIC (Salmonella typhimurium) of 4.53 µM (≈ 12.5 µg/mL) and an MIC [31] of 2.27 µM (≈ 6.25 µg/mL). For the same molecule, the MIC [32] was 4.53 µM (≈ 12.5 µg/mL), the MIC [33] was 4.35 µM (≈ 12 µg/mL) and the MIC [34] was 9.06 µM (≈ 25 µg/mL).
